Laboratory results as given in the NIST ThermoML archive (doi:10.1016/j.jct.2017.11.011).

Legend:
[1] = relative permittivity at various frequencies (dimensionless); settings: 100 kPa, Liquid, Frequency=1 MHz, Parallel plate capacitor
[2] = 101.33 kPa, Liquid, Vibrating tube method
[3] = relative permittivity at various frequencies (dimensionless); xn = mol fraction of the nth substance listed; settings: 100 kPa, Liquid, Frequency=1 MHz, Parallel plate capacitor

CN(C)C=O [dimethylformamide]
[1]
Settings | relative permittivity
293.15 K | 38.334
298.15 K | 37.44
303.15 K | 36.58

Nc1ccccc1 [aniline]
Settings | mass density, 293.15 K [kg/m3] | mass density, 298.1 K [kg/m3] | mass density, 303.15 K [kg/m3] | relative permittivity, 293.15 K | relative permittivity, 298.15 K | relative permittivity, 303.15 K
[1] | – | – | – | 7.117 | 6.984 | 6.856
[2] | 1021.79 | 1017.52 | 1013.19 | – | – | –

CN(C)C=O [dimethylformamide] + Nc1ccccc1
[3], x1 = 1
Settings | relative permittivity
293.15 K | 38.334
298.15 K | 37.44
303.15 K | 36.58

Nc1ccccc1 [aniline] + CN(C)C=O
relative permittivity, [3]
Settings | 293.15 K | 298.15 K | 303.15 K
x2 = 0 | 7.117 | 6.984 | 6.856
x2 = 0.0533 | 8.91 | 8.729 | 8.557
x2 = 0.1046 | 10.653 | 10.426 | 10.2
x2 = 0.1562 | 12.414 | 12.144 | 11.876
x2 = 0.2033 | 14.004 | 13.689 | 13.383
x2 = 0.3015 | 17.269 | 16.874 | 16.485
x2 = 0.4071 | 20.625 | 20.146 | 19.678
x2 = 0.5013 | 23.428 | 22.895 | 22.371
x2 = 0.5999 | 26.184 | 25.601 | 25.026
x2 = 0.6989 | 28.955 | 28.31 | 27.687
x2 = 0.7931 | 31.604 | 30.92 | 30.246
x2 = 0.8431 | 33.12 | 32.402 | 31.69
x2 = 0.8982 | 34.833 | 34.071 | 33.315
x2 = 0.9459 | 36.439 | 35.62 | 34.821
